This is an account of results in US5739115A, “Sulfated maltooligosaccharides with heparin-like properties” (Glycomed Incorporated, priority 1994, dated 1998).

The test system of experiment [1] is pericyte and smooth muscle cell. The conditions noted are these: literature; result in words; cited from earlier work.
Experiment [2] has as its system chicken chorioallantoic membrane (CAM). As to the kind of experiment: Chicken chorioallantoic membrane (CAM) assay, angiostatic activity. The class given is in vivo. The source says:
Compositions that stimulate or inhibit angiogenesis can be identified using several assays known in the art. The chick chorioallantoic membrane (CAM) assay is commonly used. Using the CAM assay, certain heparinoids inhibit angiogenesis when administered with certain steroids. Folkman and Ingber, Ann, Surg. (1987) 206:374, Folkman et at., Science (1983) 221:719.
Compositions that stimulate or inhibit angiogenesis can be identified using several assays known in the art. Highly sulfated maltotetraose, Composition 5, Table 2, was tested for angiogenesis activity using the chicken chorioallantoic membrane (CAM) assay. The assay was performed as described by Castellot et. at., J. of Cellular Physiology (1986) 127: 323-329, with the exception that samples were evaluated for their efficacy to inhibit neovascularization. Carboxy methyl cellulose pellets containing 50 ug of hydrocortisone, or hydrocortisone plus different amounts of highly sulfated maltotetraose were incubated on the CAM for 3-4 days before scoring the results. Highly sulfated maltotetraose was produced as described in Example 2. Angiostatic activity is defined as a partial clearing or an avascular zone around the pellet. […]

The subject of experiment [3] is adrenocortical endothelial (ACE) cell line. As to the kind of experiment: Inhibition of bFGF-dependent adrenocortical endothelial (ACE) cell proliferation. The class given is cell-based. The conditions noted are these: 2 ng/ml bFGF, four days, result in words, FIGS. 2 and 4. The procedure: The capacity of the sulfated maltohexaoses to inhibit the proliferation of a bFGF-dependent adrenocortical endothelial (ACE) cell line was determined. This cell line (provided by D. Gospodarowicz, UCSF) requires either aFGF or bFGF for a proliferative response. Cells were seeded at low density in microtiter wells in the presence of 2 ng/ml bFGF, and growth was determined as total protein after four days in the presence of the sulfated maltohexaoses.

In the next experiment the test system is bFGF. Kind of experiment: Binding of RO-12 UC cells to bFGF coated micro-titer wells. The format is cell-based, human. The settings on record: result in words, FIGS. 1 and 3. The method, then:
Bound cells are readily quantitated as total protein.
The assay was run as follows: Fifty microliters of 10 ug/ml human recombinant bFGF was added to wells of a 96-well tissue culture plate and incubated overnight at 4° C. The wells were aspirated with PBS to remove any unbound bFGF, rinsed twice with PBS, and subsequently incubated with PBS containing 5% (v/v) fetal bovine serum for 1 hour at room temperature. RO-12 UC cells were suspended at a density of 3×10^6 cells/ml in PBS containing 5% fetal bovine serum. To this mixture was added the desired amount of sulfated composition, or heparin. […] Next, 100 ul of the cell suspension was immediately added to the microtiter wells, and incubated for 5 minutes, after which the wells were washed 3 times with PBS. Finally, the amount of cell protein bound to the wells was determined by dissolving the bound cells in 20 ul of 5% SDS and measuring the protein. concentration of the cell lysates. BSA was used as the standard.

The subject of a further experiment is vascular proliferation. The settings on record: literature; result in words; cited from earlier work.
In experiment [4] the test system is basic fibroblast growth factor. The conditions noted are these: literature; result in words; cited from earlier work.
In experiment [5] the test system is Bovine smooth muscle cells (SMC). As to the kind of experiment: Inhibition of smooth muscle cell (SMC) growth. The class given is cell-based. The conditions noted are these: for inhibition of SMC growth (anti-proliferative activity): relative to heparin. The source says:
Maltotetraose, maltopentaose and maltohexaose were sulfated as described in Examples 1-3, and assayed for their effects on smooth muscle cell proliferation using a standard assay for this activity. A convenient assay, in detail, is as follows:
Solutions to be tested are made up in DMEM medium containing 10% fetal calf serum and penicillin/streptomycin. Bovine smooth muscle cells (SMC) are isolated from bovine aorta by the method of Ross, R., J Cell Biol (1971) 172-186. SMC from passage 3-10 are plated at 350-700 cells per well in 96-well microtiter plates in the medium above and allowed to attach for 2-4 hr. The complete medium is then replaced with DMEM supplemented with 0.1% fetal calf serum, and the cells are incubated for an additional period of about 24 to 72 hr to arrest cell growth. The low-serum medium is then replaced with complete medium containing the test samples. The sulfated maltose oligosaccharides of the invention were added to the medium to make final concentrations as shown in the figures. The effects of heparin at the same concentrations were also determined.
The cells are allowed to grow for up to 7 days with replicate plates sampled at regular intervals. Cell number is determined by removing the medium and washing the cells with phosphate-buffered saline, adding 75-150 ul lysis buffer, and assaying for lactate dehydrogenase (LDH) activity, as described by Brandley, B., et at., J Biol Chem (1987) 262:6431. The activity of LDH is proportional to cell number.

The next experiment has as its system heparanase. Kind of experiment: Heparanase inhibition, rat hepatoma cell heparanase. The class given is biochemical.
In another experiment the test system is CAPAN-2. As to the kind of experiment: CAPAN-2 pancreatic tumor growth in nude mice. The class given is in vivo, human tumor in nude mouse. The settings on record: dosed once daily from day 0; result in words. The procedure: (§1) Experiments were conducted to test the efficacy of highly sulfated maltotetraose, Composition 5, Table 2, on tumor growth in an animal model system, the nude mouse. The growth of human tumors in the nude mouse has clinical relevance to the growth of tumors in humans.
Three human tumor cell lines were utilized, the mammary adenocarcinoma, MDA231, the pancreatic tumor cell line, CAPAN-2, and the prostatic adenocarcinoma cell line, PC-3. All cell lines are available from the American Type Culture Collection, and grow aggressively in nude mice. The experiments were conducted as follows: female, 15-20 gram nude mice, in groups of ten, were inoculated subcutaneously with 3-5×10^6 viable MDA231, CAPAN-2, or PC-3 cells in 0.1 ml PBS. The cells were grown in standard DMEM tissue culture media supplemented with 10% fetal calf serum in a humidified 5% CO2 incubator at 37° C. The cells were harvested with trypsin-EDTA, washed 2× with PBS, resuspended at a concentration of 3-5×10^7 cells/ml, and placed on ice prior to injection. […]
(§2) Tumor volume was determined using the following formula: [formula]
The effects of highly satfated maltotetraose on CAPAN-2 tumor cell growth were determined using the materials and methods set forth above with the following exceptions. […]

A further experiment relates to PC-3. Kind of experiment: PC-3 prostatic adenocarcinoma tumor growth in nude mice. The format is in vivo, human tumor in nude mouse. The settings on record: 80 mg/kg/day subcutaneous, 23 days, all time points tested; result in words. The procedure: as §1
(§3) Three human tumor cell lines were utilized, the mammary adenocarcinoma, MDA231, the pancreatic tumor cell line, CAPAN-2, and the prostatic adenocarcinoma cell line, PC-3. All cell lines are available from the American Type Culture Collection, and grow aggressively in nude mice. The experiments were conducted as follows: female, 15-20 gram nude mice, in groups of ten, were inoculated subcutaneously with 3-5×10^6 viable MDA231, CAPAN-2, or PC-3 cells in 0.1 ml PBS. The cells were grown in standard DMEM tissue culture media supplemented with 10% fetal calf serum in a humidified 5% CO2 incubator at 37° C. The cells were harvested with trypsin-EDTA, washed 2× with PBS, resuspended at a concentration of 3-5×10^7 cells/ml, and placed on ice prior to injection.
[…] The composition was filter sterilized with a 0.2 um Gelman filter unit.
as §2
Finally, the effects of highly sulfated maltotetraose on the human prostatic adenocarcinoma line, PC-3, was determined. This cell line is also available from the American Type Culture Collection. […]

The next experiment deals with MDA231. As to the kind of experiment: MDA231 mammary adenocarcinoma tumor growth in nude mice. The format is in vivo, human tumor in nude mouse. The conditions noted are these: for MDA231 tumor growth inhibition: result in words. The procedure:
as §1, §3
On a dally basis, the mice were subcutaneously injected with 100 mg/kg of highly sulfated maltotetraose made up in PBS, and produced as described in Example 2. The composition was filter sterilized with a 0.2 um Gelman filter unit.
as §2
Control mice were injected with PBS vehicle only. Experimental and control mice were injected twice daily with 0.05 ml of the appropriate solution starting on days 0-40 post tumor challenge. From days 41-70 the animals were dosed once daily with 100 mg/kg/day in a volume of 0.1 ml per injection, and tumor volume measured at defined times using standard methods.

The mark [6] stands for this setting: hydrocortisone 50 ug/pellet alone, 24 hr.
Where [7] appears, read: listed as highly sulfated maltotriose.
[8] abbreviates: listed as highly sulfated maltose.

Procedure for heparanase: Highly sulfated maltotetraose, Composition 5, Table 2, maltoheptaose and maltose were tested for heparanase inhibitory activity using heparanase from a rat hepatoma cell line. […] Further, their inhibitory activities were compared to porcine mucosal heparin. […] The following procedures and materials were used. Confluent rat hepatoma cell cultures were grown in standard cell culture flasks, and washed 3 times with 10 ml of a 50 mM Hepes solution containing 0.25M sucrose and 0.14M NaCl, pH 7.4. Next, 1 ml of a 50 mM MES buffer, pH 5.2, containing 0.14M NaCl, 6 mM sodium azide, and certain protease inhibitors was added and the cells removed from the flask using a disposable cell scraper. The following protease inhibitors were present in the MES buffer: 0.2 ug/ml aprotinin, 0.5 ug/ml leupeptin, 100 ug/ml soybean trypsin inhibitor, 1 mM PMSF, 2 mM EDTA (sodium salt), and 15 mM D-saccharic acid 1,4 lactone (exoglucuronidase inhibitor).
The cells were added to a 7 ml Dounce homogenizer, freezed/thawed 3 times in an ethanol/dry ice bath, and homogenized with 15 strokes using a tight pestle. The resulting cell lysates were placed in a 2 ml centrifuge tube and centrifuged at 4° C. for 30 minutes at 16,000×g. The supernatant was removed, and the protein concentration in the supernatant determined using the Macro BCA protein assay. BSA was used as a standard. Heparanase activity was quantified by measuring soluble N-^3 H-acetylated pancreas heparan sulfate fragments derived from uncleaved N-^3 H-acetylated pancreas heparan sulfate distinguishable by cetylpyridinium chloride (CPC) precipitation. […] The following procedures were used.
Next, 10 ul of distilled water containing various concentrations of porcine mucosal heparin, or the appropriate highly sulfated maltooligosaccharide, was added. Then, 30 ul of rat hepatoma cell supernatant, isolated as described above, containing 7.5-10 ug of protein in 50mM MES buffer, pH 5.2, containing 0.14M NaCl, 6mM sodium azide and the protease inhibitors described above, is added to siliconized 1.5 ml microcentrifuge tubes. Three to six replicates were run for each concentration of highly sulfated maltotetraose while three replicates were run for each concentration of porcine mucosal heparin. Controls were run to account for background counts.
The enzyme substrate inhibitor mixture was mixed, after which the tubes were incubated at 37° C. for 20 minutes. After 20 minutes, the reaction was stopped by adding to the reaction tubes 150 ul of an aqueous heparin solution (0.33 mg/ml). 200 ul of 100 mM sodium acetate pH 5.5 and 100 ul of CPC (0.6% in water) were then added. Three replicates maintained on ice were run as background controls (0 min.) in which the enzyme was added to the tubes immediately followed by heparin to terminate the reaction. […]

Consider chondroitin sulfate, for which the “inhibition of pericyte and/or smooth muscle cell proliferation” value in experiment [1] is listed as “do not have this effect”.
In the case of `C[C@]12CCC(=O)C=C1CC[C@@H]1[C@@H]2[C@@H](O)C[C@@]2(C)[C@H]1CC[C@]2(O)C(=O)CO` [Hydrocortisone, hydrocortisone], in [2] (setting [6]), the “number of embryos scored, NO EFFECT” value was determined as 27 embryos; the “number of embryos scored, avascular zone (++)” value is reported as 0 embryos; the “number of embryos scored, partial clearing (+)” value was 2 embryos.
Take “highly sulfated maltotriose [Composition 8]”: the “inhibition of adrenocortical endothelial cell proliferation” value in experiment [3] (setting [7]) is “less active”; in experiment [3] (listed as sulfated maltotriose), “little or no activity”. The “inhibition of binding of RO-12 UC cells to bFGF coated wells” value (shortened to “inhibition of binding of RO-12 UC cells”) in the experiment on bFGF (setting [7]) is recorded as “less active”; in the experiment with bFGF (listed as sulfated maltotriose), “little or no activity”.
Take heparin: the “vascular proliferation associated with injury” value in the experiment with vascular proliferation was “slow or arrest the vascular proliferation”. The “binding to basic fibroblast growth factor” value in experiment [4] is “binds heparin quite strongly in vitro”. Further, the “inhibition of binding of RO-12 UC cells” value in the experiment on bFGF is “inhibits RO-12 UC cell binding”. Besides, in experiment [1], the “inhibition of pericyte and/or smooth muscle cell proliferation” value was “inhibitor of both pericyte and smooth muscle cell proliferation”. Also, in [5] (heparin reference), the “concentration that gave 100% inhibition of SMC proliferation” value stood at 150 µg/mL.
Consider dermatan sulfate, for which, in experiment [1], the “inhibition of pericyte and/or smooth muscle cell proliferation” value was “do not have this effect”.
Regarding “highly sulfated maltopentaose [Composition 6]”, the “inhibition of adrenocortical endothelial cell proliferation” value in [3] was “significant activity”. The “inhibition of binding of RO-12 UC cells” value in the experiment with bFGF is “significant activity”. Besides, in experiment [5] (about 50 ug/ml), the “inhibition of SMC growth, per cent of heparin inhibition” value is 100%. Also, the “inhibition of SMC growth (anti-proliferative activity)” value in experiment [5] (result in words) was “more effective in inhibiting SMC proliferation than the smaller-sized sulfated maltotetraose”.
For highly sulfated maltose [Composition 9], the “inhibition of adrenocortical endothelial cell proliferation” value in [3] is recorded as “little or no activity relative to the highly sulfated maltotetraose composition”; in [3] (setting [8]), “less active”. For the same compound, the “inhibition of binding of RO-12 UC cells” value in the experiment on bFGF is “little or no activity relative to the highly sulfated maltotetraose composition”; in the experiment with bFGF (setting [8]), “less active”. Besides, the heparanase inhibition entry in the experiment with heparanase (at greater than 200 ug/ml, result in words) is recorded as “no activity”.
Turning to “highly sulfated maltotetraose [Composition 5]”, the “CAPAN-2 tumor growth inhibition” value with CAPAN-2 is listed as “significantly inhibits tumor growth”. Further, in [3], the “inhibition of adrenocortical endothelial cell proliferation” value is recorded as “significant activity”. For the same compound, the PC-3 growth inhibition entry in the experiment with PC-3 is reported as “inhibited PC-3 cell growth at all the time points tested”. Also, the “inhibition of binding of RO-12 UC cells” value in the experiment on bFGF is “significant activity”. Further, the angiostatic activity entry in [2] (HSM alone, without hydrocortisone, result in words) is “inactive”. The “heparanase IC50” value in the experiment on heparanase (rat hepatoma heparanase, pH 5.2, 37° C., 20 minutes) stood at 9.0 µg/mL. Further, the “heparanase inhibition relative to porcine mucosal heparin” value in the experiment with heparanase (result in words, FIG. 11) was “approximately one half as effective as porcine mucosal heparin”. Moreover, the “inhibition of SMC growth” value in [5] (150 ug/ml, result in words) is “one hundred per cent inhibition was not observed”. In experiment [5] (about 60 ug/ml), the “inhibition of SMC growth, per cent of heparin inhibition” value is listed as “about 50%”. In addition, the “inhibition of SMC growth (anti-proliferative activity)” value in [5] (result in words) is listed as “significant anti-proliferative effects, although not as great as heparin”. Besides, the entries for the “MDA231 tumor growth inhibition” value in the experiment on MDA231 (100 mg/kg subcutaneous) and with MDA231 (by days 68-69) were “tumor growth is significantly inhibited” and “dramatic”, respectively. Also, the “time at which inhibition is first apparent” value in the experiment with MDA231 (MDA231, about) is 36 to 37 days. Further, the tumor volume in the experiment with MDA231 (MDA231, days 68-69, control about 375 mm^3) is about 125 mm^3.
For heparan sulfate, the “vascular proliferation associated with injury” value in the experiment with vascular proliferation is “slow or arrest the vascular proliferation”.
Take “highly sulfated maltoheptaose [Composition 7]”: the “inhibition of adrenocortical endothelial cell proliferation” value in [3] is “significant activity”. In addition, the “inhibition of binding of RO-12 UC cells” value with bFGF is given as “significant activity”. Moreover, the heparanase inhibition result in the experiment on heparanase (result in words) was “as active as heparin”.
